Assay results: PMC11208149, “Structure of plant photosystem I in a native assembly state defines PsaF as a regulatory checkpoint” (Nature Plants, 2024)

Assays:
[1] = target: T1, mature PSI (Avena sativa, UniProt A0A3G1AUL2+A0A3G1AZK6); assay: cryo-EM structure ([…] Å); format: binding
T1 construct: gene psaA; native PSI-LHCI complex purified from mature green leaves, detergent-solubilised; with Photosystem I iron-sulfur center; Photosystem I reaction center subunit II, chloroplastic; Photosystem I reaction center subunit IV, chloroplastic; Photosystem I reaction center subunit III, chloroplastic; Photosystem I reaction center subunit V, chloroplastic; Photosystem I reaction center subunit VI, chloroplastic; Photosystem I reaction center subunit VIII; Photosystem I reaction center subunit IX; Photosystem I reaction center subunit psaK, chloroplastic; Photosystem I reaction center subunit XI, chloroplastic; Photosystem I reaction center subunit N, chloroplastic

[2] = target: T2, pre-PSI-1 (PSI assembly intermediate) (Avena sativa, UniProt A0A3G1AUL2+A0A3G1AZK6); assay: cryo-EM structure ([…] Å); format: binding; settings: native cofactor; site PQN844 of PsaA
T2 construct: gene psaA; native eight-subunit complex from thylakoids of greening seedlings (10 h light), DDM-solubilised; lacks PsaF, PsaG, PsaJ, PsaK, PsaN and LHCI; with Photosystem I iron-sulfur center; Photosystem I reaction center subunit II, chloroplastic; Photosystem I reaction center subunit IV, chloroplastic; Photosystem I reaction center subunit VI, chloroplastic; Photosystem I reaction center subunit VIII; Photosystem I reaction center subunit XI, chloroplastic
T2 sequence (A0A3G1AUL2 1-750): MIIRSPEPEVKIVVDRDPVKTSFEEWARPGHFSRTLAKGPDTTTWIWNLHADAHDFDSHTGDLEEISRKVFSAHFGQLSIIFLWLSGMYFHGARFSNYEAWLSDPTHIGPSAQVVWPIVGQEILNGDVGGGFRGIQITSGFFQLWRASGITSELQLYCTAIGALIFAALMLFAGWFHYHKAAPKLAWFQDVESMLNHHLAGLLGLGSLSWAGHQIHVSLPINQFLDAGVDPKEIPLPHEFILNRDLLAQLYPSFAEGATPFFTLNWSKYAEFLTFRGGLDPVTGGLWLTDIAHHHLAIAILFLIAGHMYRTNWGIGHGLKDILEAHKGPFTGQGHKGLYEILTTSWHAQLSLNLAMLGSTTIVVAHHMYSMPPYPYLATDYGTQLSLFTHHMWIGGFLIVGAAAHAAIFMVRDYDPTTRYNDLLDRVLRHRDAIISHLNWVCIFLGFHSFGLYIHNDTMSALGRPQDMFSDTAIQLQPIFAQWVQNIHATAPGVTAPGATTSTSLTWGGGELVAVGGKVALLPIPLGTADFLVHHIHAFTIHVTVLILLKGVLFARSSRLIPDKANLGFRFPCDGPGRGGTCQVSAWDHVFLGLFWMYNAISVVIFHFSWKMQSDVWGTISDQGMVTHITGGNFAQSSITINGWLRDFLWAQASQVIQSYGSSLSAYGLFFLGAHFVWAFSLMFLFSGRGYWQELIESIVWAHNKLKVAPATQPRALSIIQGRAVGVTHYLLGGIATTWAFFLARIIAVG
T2 sequence (A0A3G1AZK6 1-734): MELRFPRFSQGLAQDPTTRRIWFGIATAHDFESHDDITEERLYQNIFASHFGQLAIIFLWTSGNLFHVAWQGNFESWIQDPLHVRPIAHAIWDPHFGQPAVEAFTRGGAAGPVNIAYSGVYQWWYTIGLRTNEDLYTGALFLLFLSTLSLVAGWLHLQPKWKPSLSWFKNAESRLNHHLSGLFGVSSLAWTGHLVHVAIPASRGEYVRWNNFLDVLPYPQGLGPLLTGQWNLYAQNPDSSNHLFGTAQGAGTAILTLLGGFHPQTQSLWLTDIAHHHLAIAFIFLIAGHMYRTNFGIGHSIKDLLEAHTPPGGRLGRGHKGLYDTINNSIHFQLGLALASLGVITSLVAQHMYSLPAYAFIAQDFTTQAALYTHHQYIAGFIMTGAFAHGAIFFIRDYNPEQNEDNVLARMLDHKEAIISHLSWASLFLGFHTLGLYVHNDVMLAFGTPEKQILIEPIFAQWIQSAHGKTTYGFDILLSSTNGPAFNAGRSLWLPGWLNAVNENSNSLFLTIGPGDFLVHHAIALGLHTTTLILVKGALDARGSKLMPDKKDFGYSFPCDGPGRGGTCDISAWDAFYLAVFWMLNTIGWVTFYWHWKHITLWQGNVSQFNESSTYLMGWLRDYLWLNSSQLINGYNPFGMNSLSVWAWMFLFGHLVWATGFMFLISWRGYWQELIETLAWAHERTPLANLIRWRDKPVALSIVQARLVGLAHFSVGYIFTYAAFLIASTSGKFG
T2 sequence (A0A3G1ATU7 2-81 partner): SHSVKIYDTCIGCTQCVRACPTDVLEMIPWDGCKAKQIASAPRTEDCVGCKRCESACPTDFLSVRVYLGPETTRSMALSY
T2 sequence (A0A3G1AZM6 1-36 partner): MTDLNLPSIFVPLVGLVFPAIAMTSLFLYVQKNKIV

T1 sequence (A0A3G1AUL2 1-750): as the sequence (A0A3G1AUL2 1-750) above
T1 sequence (A0A3G1AZK6 1-734): as the sequence (A0A3G1AZK6 1-734) above
T1 sequence (A0A3G1ATU7 2-81 partner): as the sequence (A0A3G1ATU7 2-81 partner) above
T1 sequence (A0A3G1AZM6 1-36 partner): as the sequence (A0A3G1AZM6 1-36 partner) above
T1 sequence (A0A3G1AZP2 1-42 partner): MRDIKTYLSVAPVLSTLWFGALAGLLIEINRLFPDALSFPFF

Structure (SMILES)	cryo-EM structure (2.2 Å) ([1]; native cofactor, site PQN844 of PsaA)	cryo-EM structure (2.1 Å) [2]	cryo-EM structure (2.2 Å) ([1]; native pigment, site BCR856, near the PSI core - LHCI interface)
CC1=C(C/C=C(\C)CCC[C@H](C)CCC[C@H](C)CCCC(C)C)C(=O)c2ccccc2C1=O [PQN, phylloquinone]	phylloquinone PQN844 (PsaA) shows an altered conformation of the isoprenoid chain	phylloquinone PQN844 (PsaA) shows an altered conformation of the isoprenoid chain	–
CC1=C(/C=C/C(C)=C/C=C/C(C)=C/C=C/C=C(C)/C=C/C=C(C)/C=C/C2=C(C)CCCC2(C)C)C(C)(C)CCC1 [BCR, β-carotene]	–	–	the head group of β-carotene BCR856 resides in the mature structure
